Measured values as given in BindingDB's records for patent WO2022129953 (HEPTARES THERAPEUTICS LIMITED, 2022).
Several values for one entry are separate records, joined by “and”; a condition that tells them apart may be missing. Equal entries are not always repeated.

These molecules were tested against Replicase polyprotein 1ab (Severe acute respiratory syndrome coronavirus 2, UniProt P0DTD1) (assay: SARS-CoV-2 Mpro enzyme assay).
Experimental: The activity of SARS-Cov-2 Mpro was determined in a Fluorescence Resonance Energy Transfer (FRET)-based enzymatic assay using FRET Substrate Dabcyl-KTSAVLQSGFRKM-E(Edans)-Amide. In brief, […] of test compounds (concentrations ranging from […]) was preincubated with […] of 20 nM (final concentration) Mpro enzyme for 30 min at 30 °C in an assay buffer containing 20 mM HEPES, 120 mM NaCI, 0.4 mM EDTA, and 4 mM DTT and 20% glycerol. Reaction was initiated by addition of 10 pL of […] (final concentration) of FRET substrate (Dabcyl-KTSAVLQSGFRKM-E (Edans)-Amide). The reaction was incubated for 1 h and the resulting fluorescent intensity was measured at Ex=360 nm/Em=490 nm at 30 °C using a SPARK 20M plate reader (Tecan). Boceprevir was used a reference standard compound. pICso and pKi were determined using 4PL GraphPad Prism and data were represented as a mean n=2± SD.
Molecule `NC(=O)C(=O)C(C[C@@H]1CCNC1=O)NC(=O)[C@H](CC1CC1)NC(=O)/C=C/c1ccc(Cl)cc1F` (stereo partly specified) [WO2022129953, Example 1] has an IC50 of 13 nM. With `NC(=O)C(=O)C(C[C@@H]1CCNC1=O)NC(=O)[C@H](CC1CC1)NC(=O)/C=C/c1ccccc1` (stereo partly specified) [WO2022129953, Example 2] the IC50 was 20 nM. For `NC(=O)C(=O)C(C[C@@H]1CCNC1=O)NC(=O)[C@H](CC1CC1)NC(=O)OCc1ccccc1` (stereo partly specified) [WO2022129953, Example 3], the IC50 was 25 nM. Molecule `NC(=O)/C(=N\O)C(C[C@@H]1CCNC1=O)NC(=O)[C@H](CC1CC1)NC(=O)/C=C/c1ccccc1` (stereo partly specified) [WO2022129953, Example 4] has an IC50 of 1000 nM. `CC(C)(C)NC(=O)C(=O)C(CC1CCNC1=O)NC(=O)[C@H](CC1CC1)NC(=O)/C=C/c1ccc(Cl)cc1F` (stereo partly specified) [WO2022129953, Example 5] was tested, and the IC50 was 501 nM. For `NC(=O)C(=O)C(CC1CC1)NC(=O)[C@H](CC1CC1)NC(=O)/C=C/c1ccccc1` (stereo partly specified) [WO2022129953, Example 6], the IC50 was 5010 nM. With `NC(=O)C(=O)C(CC1CCCC1)NC(=O)[C@H](CC1CC1)NC(=O)/C=C/c1ccccc1` (stereo partly specified) [WO2022129953, Example 7] the IC50 was 7940 nM. Work on `CC(C)(C)C[C@H](NC(=O)/C=C/c1ccc(Cl)cc1Cl)C(=O)NC(C[C@@H]1CCNC1=O)C(=O)C(=O)C#N` (stereo partly specified) [WO2022129953, Example 9] yielded an IC50 of 398 nM. For `CC(C)(C)C[C@H](NC(=O)/C=C/c1ccc(Cl)cc1Cl)C(=O)NC(C[C@@H]1CCNC1=O)C(=O)C(=O)NC1CC1` (stereo partly specified) [WO2022129953, Example 10], the IC50 was 6.31 nM. Work on `CC(C)(C)C[C@H](NC(=O)/C=C/c1ccc(Cl)cc1F)C(=O)NC(C[C@@H]1CCNC1=O)C(=O)C(=O)NC1CC1` (stereo partly specified) [WO2022129953, Example 11] yielded an IC50 of 7.94 nM. `C[C@@H](CC(=O)N[C@@H](CC(C)(C)C)C(=O)NC(C[C@@H]1CCNC1=O)C(=O)C(=O)NC1CC1)c1ccccc1` (stereo partly specified) [WO2022129953, Example 12] showed an IC50 of 16 nM. Work on `C[C@H](CC(=O)N[C@@H](CC(C)(C)C)C(=O)NC(C[C@@H]1CCNC1=O)C(=O)C(=O)NC1CC1)c1ccccc1` (stereo partly specified) [WO2022129953, Example 13] yielded an IC50 of 16 nM. With `CC[C@@H](CC(=O)N[C@@H](CC(C)(C)C)C(=O)NC(C[C@@H]1CCNC1=O)C(=O)C(=O)NC1CC1)c1ccccc1` (stereo partly specified) [WO2022129953, Example 14] the IC50 was 7.9 nM. In the case of `CC[C@H](CC(=O)N[C@@H](CC(C)(C)C)C(=O)NC(C[C@@H]1CCNC1=O)C(=O)C(=O)NC1CC1)c1ccccc1` (stereo partly specified) [WO2022129953, Example 15], the IC50 is reported as 10 nM. `CC(C)(C)C[C@H](NC(=O)C[C@@H](c1ccccc1)C(F)(F)F)C(=O)NC(C[C@@H]1CCNC1=O)C(=O)C(=O)NC1CC1` (stereo partly specified) [WO2022129953, Example 16] was tested, and the IC50 was 20 nM. For `CC(C)(C)C[C@H](NC(=O)C[C@H](c1ccccc1)C(F)(F)F)C(=O)NC(C[C@@H]1CCNC1=O)C(=O)C(=O)NC1CC1` (stereo partly specified) [WO2022129953, Example 17], the IC50 was 13 nM. `CC(C)C[C@H](NC(=O)/C=C/c1ccc(Cl)cc1F)C(=O)NC(C[C@@H]1CCNC1=O)C(=O)C(N)=O` (stereo partly specified) [WO2022129953, Example 18] was tested, and the IC50 was 13 nM. Molecule `CCNC(=O)C(=O)C(C[C@@H]1CCNC1=O)NC(=O)[C@H](CC1CC1)NC(=O)/C=C/c1ccc(Cl)cc1F` (stereo partly specified) [WO2022129953, Example 19] has an IC50 of 13 nM. For `NC(=O)C(=O)C(C[C@@H]1CCNC1=O)NC(=O)[C@H](CC1CC1)NC(=O)/C=C/c1ccc(Cl)cc1Cl` (stereo partly specified) [WO2022129953, Example 20], the IC50 was 100 nM. For `O=C(/C=C/c1ccc(Cl)cc1F)N[C@@H](CC1CC1)C(=O)NC(C[C@@H]1CCNC1=O)C(=O)C(=O)NC1CC1` (stereo partly specified) [WO2022129953, Example 21], the IC50 was 7.94 nM and 16 nM. Molecule `CC(C)(C)C[C@H](NC(=O)/C=C/c1ccc(Cl)cc1F)C(=O)NC(C[C@@H]1CCNC1=O)C(=O)C(N)=O` (stereo partly specified) [WO2022129953, Example 22] has an IC50 of 6.31 nM. For `CCNC(=O)C(=O)C(C[C@@H]1CCNC1=O)NC(=O)[C@H](CC(C)(C)C)NC(=O)/C=C/c1ccc(Cl)cc1F` (stereo partly specified) [WO2022129953, Example 23], the IC50 was 13 nM. In the case of `CCNC(=O)C(=O)C(C[C@@H]1CCNC1=O)NC(=O)[C@H](CC1CC1)NC(=O)/C=C/c1ccc(Cl)cc1Cl` (stereo partly specified) [WO2022129953, Example 24], the IC50 is reported as 13 nM. For `O=C(/C=C/c1ccc(Cl)cc1Cl)N[C@@H](CC1CC1)C(=O)NC(C[C@@H]1CCNC1=O)C(=O)C(=O)NC1CC1` (stereo partly specified) [WO2022129953, Example 25], the IC50 was 10 nM. `CCNC(=O)C(=O)C(C[C@@H]1CCNC1=O)NC(=O)[C@H](CC(C)(C)C)NC(=O)/C=C/c1ccc(Cl)cc1Cl` (stereo partly specified) [WO2022129953, Example 26] was tested, and the IC50 was 10 nM. `CC(C)(C)C[C@H](NC(=O)/C=C/c1ccc(Cl)cc1Cl)C(=O)NC(C[C@@H]1CCNC1=O)C(=O)C(N)=O` (stereo partly specified) [WO2022129953, Example 27] was tested, and the IC50 was 7.9 nM. `O=C(N[C@@H](CC1CC1)C(=O)NC(C[C@@H]1CCNC1=O)C(=O)C(=O)NC1CC1)OCc1ccccc1` (stereo partly specified) [WO2022129953, Example 29] was tested, and the IC50 was 16 nM. With `O=C(CCc1ccc(Cl)cc1Cl)N[C@@H](CC1CC1)C(=O)NC(C[C@@H]1CCNC1=O)C(=O)C(=O)NC1CC1` (stereo partly specified) [WO2022129953, Example 30] the IC50 was 20 nM. With `O=C(/C=C/c1ccc(Cl)cc1F)N[C@@H](CC1CCC1)C(=O)NC(C[C@@H]1CCNC1=O)C(=O)C(=O)NC1CC1` (stereo partly specified) [WO2022129953, Example 31] the IC50 was 25 nM. Work on `CC[C@@H](CC(=O)N[C@@H](CC1CC1)C(=O)NC(C[C@@H]1CCNC1=O)C(=O)C(=O)NC1CC1)c1ccccc1` (stereo partly specified) [WO2022129953, Example 32] yielded an IC50 of 13 nM. For `CC[C@H](CC(=O)N[C@@H](CC1CC1)C(=O)NC(C[C@@H]1CCNC1=O)C(=O)C(=O)NC1CC1)c1ccccc1` (stereo partly specified) [WO2022129953, Example 33], the IC50 was 25 nM.
